Assay results as given in patent US12398125B2, “Nitrogen-containing saturated heterocyclyl derivative” (Sumitomo Pharma Co., Ltd., priority 2022, dated 2025).
Structures can show the parent of a compound that is named as a salt.

Tested on: α-synuclein aggregate in neurospheroid prepared from human iPS cells with a mutation in PLA2G6 gene
Test: Test 2: suppressing the accumulation of α-synuclein aggregate with neurospheroid
Assay type: cell-based
Details: 120 h, DMSO = 100%, compound added day 4, measured day 9 after induction of differentiation; for activity at 0.1 µM: 100 nM, read-out: Amount of aggregate (%) 100 nM; for activity at 1 µM: 1000 nM, read-out: Amount of aggregate (%) 1000 nM
Method: Test 2: Evaluation of Suppressing the Accumulation of α-Synuclein Aggregate with Neurospheroid Prepared from Human iPS Cells with a Mutation in PLA2G6 Gene
(1) Induction of Differentiation from Human iPS Cell to Neural Cell
Neural stem cells were induced from PLA2G6 gene mutant iPS cells with PSC Neuronal Induction Medium (Thermo Fisher Scientific Inc., cat #A1647801). Neurospheroid was prepared from the induced neural stem cells by three-dimensional culture system, and preserved with BrainPhys Neuronal Medium (STEMCELL Technologies, cat #ST-05793) comprising NeuroCult SM1 Neuronal Supplement, N2 Supplement-A, 20 ng/mL BDNF, 20 ng/mL GDNF, 1 mM dibutyryl cAMP, and 200 nM ascorbic acid. Half of the culture medium was replaced on day 2 and day 4 after the induction of differentiation.
The test compound was diluted with the culture medium so as to be twice the final concentration, and an equal volume of the twice-concentrated solution was added to each well when half of the culture medium was replaced on day 4 after induction of differentiation.
(2) Evaluation of the Amount of α-Synuclein Aggregate
From the neurospheroid 9 days after the induction of differentiation, proteins were extracted with a TBS solution containing 1% TritionX-100, and the extracted proteins were subjected to a protein analysis with Simple Western system (Protein Simple, Inc., cat #SM-W008) using an α-synuclein antibody (Thermo Fisher Scientific Inc., cat #AHB0261) to measure the amount of the α-synuclein aggregate.
Assuming that the amount of the aggregate in the neurospheroid added with a DMSO solution is 100%, the amount of the aggregate in the neurospheroid added with each test compound was evaluated.

Row | Structure (SMILES) | activity at 0.1 µM [%] | activity at 1 µM [%]
1 | CC1(C(=O)N2CCC(c3cnccc3C(F)(F)F)CC2)COC1 [Example 3, (3-methyloxetan-3-yl){4-[4-(trifluoromethyl)pyridin-3-yl]piperidin-1-yl}methanone] | 6 | 10
2 | CC1(C(=O)N2CCC(c3cccnc3C(F)(F)F)CC2)COC1 [Example 4, (3-methyloxetan-3-yl){4-[2-(trifluoromethyl)pyridin-3-yl]piperidin-1-yl}methanone] | 30 | 29
3 | CCC1(C(=O)N2CCC(c3cncc(C(F)(F)F)c3)CC2)COC1 [Example 6] | 97 | 81
4 | CCC1(C(=O)N2CCC(c3cccnc3C(F)(F)F)CC2)COC1 [Example 7] | 23 | 52
5 | CCC1(C(=O)N2CCC(c3cnccc3C(F)(F)F)CC2)COC1 [Example 8] | 7 | 13
6 | CCC1(C(=O)N2CCC(c3ccc(C(F)(F)F)cn3)CC2)COC1 [Example 10] | 25 | 29
7 | CC1(C(=O)N2CCCC(c3ccc(C(F)(F)F)nc3)C2)COC1 (centres unmarked) [Example 11] | 3 | 97
8 | CCC1(C(=O)N2CCCC(c3ccc(C(F)(F)F)nc3)C2)COC1 (centres unmarked) [Example 12] | 35 | 12
9 | CC1(C(=O)N2CC(c3ccc(C(F)(F)F)nc3)C2)COC1 [Example 13] | 11 | 7
10 | CC1(C(=O)N2CCC(c3ccc(C(F)(F)F)nc3)C2)COC1 (centres unmarked) [Example 14] | 37 | 22
11 | CCC1(C(=O)N2CCC(c3ccc(C(F)(F)F)nc3)C2)COC1 (centres unmarked) [Example 15] | 23 | 48
12 | C[C@H]1C[C@@H](c2ccc(C(F)(F)F)nc2)CCN1C(=O)C1(C)COC1 [Example 16] | 26 | 106
13 | C[C@H]1C[C@H](c2ccc(C(F)(F)F)nc2)CCN1C(=O)C1(C)COC1 [Example 17] | 28 | 40
14 | CCC1(C(=O)N2CC[C@H](c3ccc(C(F)(F)F)nc3)C[C@@H]2C)COC1 [Example 18] | 81 | 80
15 | CCC1(C(=O)N2CC[C@@H](c3ccc(C(F)(F)F)nc3)C[C@@H]2C)COC1 [Example 19] | 5 | 18
16 | CC1(C(=O)N2CCC(O)(c3ccc(C(F)(F)F)nc3)CC2)COC1 [Example 20] | 2 | 91
17 | CC1(C(=O)N2CCC(F)(c3ccc(C(F)(F)F)nc3)CC2)COC1 [Example 21] | 73 | 77
18 | O=C(C1CCOCC1)N1CCC(c2ccc(C(F)(F)F)nc2)CC1 [Example 22] | 24 | 50
19 | CC1(C(=O)N2CCC(c3ccc(C(F)(F)F)nc3)CC2)CCOCC1 [Example 23] | 23 | 49
20 | O=C(C1CCOC1)N1CCC(c2ccc(C(F)(F)F)nc2)CC1 (centres unmarked) [Example 24] | 46 | 39
21 | O=C([C@H]1CCOC1)N1CCC(c2ccc(C(F)(F)F)nc2)CC1 [Example 25] | 80 | 71
22 | O=C([C@@H]1CCOC1)N1CCC(c2ccc(C(F)(F)F)nc2)CC1 [Example 26] | 26 | 33
23 | O=C([C@H]1CCCO1)N1CCC(c2ccc(C(F)(F)F)nc2)CC1 [Example 27] | 5 | 29
24 | O=C([C@@H]1CCCO1)N1CCC(c2ccc(C(F)(F)F)nc2)CC1 [Example 28] | 23 | 63
25 | CCC1(C(=O)N2CCC(c3cnc(C(F)(F)F)c(F)c3)CC2)COC1 [Example 30] | 16 | 56
26 | Cc1cc(C(F)(F)F)ncc1C1CCN(C(=O)C2(C)COC2)CC1 [Example 31, (3-methyloxetan-3-yl){4-[4-methyl-6-(trifluoromethyl)pyridin-3-yl]piperidin-1-yl}methanone] | 14 | 1
27 | CC1(C(=O)N2CCC(c3ccc(C(F)(F)F)nc3)CC2)CNC1 [Example 33, (3-Methylazetidin-3-yl){4-[6-(trifluoromethyl)pyridin-3-yl]piperidin-1-yl}methanone] | 22 | 22
28 | CC1(C(=O)N2CCC(c3cccnc3C(F)(F)F)CC2)CNC1 [Example 34] | 43 | 127

Row | Structure (SMILES) | activity at 0.1 µM [%] | activity at 1 µM [%]
29 | CC1(C(=O)N2CCC(c3cncc(C(F)(F)F)c3)CC2)CNC1 [Example 36] | 78 | 81
30 | CC1(C(=O)N2CCC(c3ccc(C(F)(F)F)cn3)CC2)CNC1 [Example 37] | 13 | 106
31 | CC1(C(=O)N2CCCC(c3ccc(C(F)(F)F)nc3)C2)CNC1 (centres unmarked) [Example 38] | 6 | 4
32 | CC1(C(=O)N2CCC(c3ccc(C(F)(F)F)nc3)C2)CNC1 (centres unmarked) [Example 39] | 92 | 70
33 | O=C(C1CCNCC1)N1CCC(c2ccc(C(F)(F)F)nc2)CC1 [Example 40] | 29 | 8
34 | CN1CC(C)(C(=O)N2CCC(c3ccc(C(F)(F)F)nc3)CC2)C1 [Example 41, (1,3-Dimethylazetidin-3-yl){4-[6-(trifluoromethyl)pyridin-3-yl]piperidin-1-yl}methanone hydrochloride] | 57 | 70
35 | CN1CC(C)(C(=O)N2CCC(c3cnccc3C(F)(F)F)CC2)C1 [Example 43, (1,3-dimethylazetidin-3-yl){4-[4-(trifluoromethyl)pyridin-3-yl]piperidin-1-yl}methanone] | 9 | 11
36 | CN1CC(C)(C(=O)N2CCCC(c3ccc(C(F)(F)F)nc3)C2)C1 (centres unmarked) [Example 46] | 38 | 25
37 | CN1CC(C)(C(=O)N2CCC(c3ccc(C(F)(F)F)nc3)C2)C1 (centres unmarked) [Example 47] | 1 | 55
38 | CN1CCC(C(=O)N2CCC(c3ccc(C(F)(F)F)nc3)CC2)CC1 [Example 48] | 16 | 21
39 | O=C(N1CCOCC1)N1CCC(c2ccc(C(F)(F)F)nc2)CC1 [Example 49, (Morpholin-4-yl){4-[6-(trifluoromethyl)pyridin-3-yl]piperidin-1-yl}methanone] | 13 | 18
40 | O=C(C1COC1)N1CCC(c2ccc(C(F)(F)F)nc2)CC1 [Example 50] | 86 | 101
41 | CC1(C)CC(C(=O)N2CCC(c3ccc(C(F)(F)F)nc3)CC2)CCO1 (centres unmarked) [Example 51] | 100 | 87
42 | CC1(C(=O)N2CCC(c3ccnc(C(F)(F)F)c3)CC2)COC1 [Example 52] | 36 | 100
43 | CC1(C(=O)N2CCC(c3ccncc3C(F)(F)F)CC2)COC1 [Example 53] | 106 | 82
44 | CC1(C(=O)N2CCC(c3ccc(Cl)nc3)CC2)COC1 [Example 54] | 63 | 35
45 | Cc1ccc(C2CCN(C(=O)C3(C)COC3)CC2)cn1 [Example 55] | 75 | 45
46 | CC(C)c1ccc(C2CCN(C(=O)C3(C)COC3)CC2)cn1 [Example 56] | 30 | 71
47 | CC1(C(=O)N2CCC(c3ccc(C(F)(F)F)nn3)CC2)COC1 [Example 57] | 88 | 50
48 | CC1(C(=O)N2CCC(c3ccnc(C(F)(F)F)n3)CC2)COC1 [Example 58] | 88 | 116
49 | CC1(C(=O)N2CCC(c3cnc(C(F)(F)F)cn3)CC2)COC1 [Example 59] | 100 | 87
50 | O=C(N1CCCOCC1)N1CCC(c2ccc(C(F)(F)F)nc2)CC1 [Example 60, (1,4-Oxazepan-4-yl){4-[6-(trifluoromethyl)pyridin-3-yl]piperidin-1-yl}methanone] | 67 | 96
51 | CC1(C)CN(C(=O)N2CCC(c3ccc(C(F)(F)F)nc3)CC2)CCO1 [Example 61] | 72 | 49
52 | O=C(N1CCC(c2ccc(C(F)(F)F)nc2)CC1)N1C[C@H]2CC[C@@H](C1)O2 [Example 62] | 81 | 51
53 | CC1(C)COCCN1C(=O)N1CCC(c2ccc(C(F)(F)F)nc2)CC1 [Example 63] | 68 | 58
54 | CCN1CC(C)(C(=O)N2CCC(c3ccc(C(F)(F)F)nc3)CC2)C1 [Example 64] | 109 | 86
55 | CCCN1CC(C)(C(=O)N2CCC(c3ccc(C(F)(F)F)nc3)CC2)C1 [Example 65] | 57 | 80
